Where two headings read alike, the source gives them in different places.
Assays:
hMPV-GFP virus = experiment: microbe, parasite or virus in culture; assay type: cell-based, human metapneumovirus
Summary of the method: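 VERO cells infected with GFP-expressing hMPV at MOI 1.25 were incubated 48 h at 37 °C with compound in 10-point 3-fold dilutions (typically 40,300–2 nM final). GFP-positive cells were counted by imaging. Same-well CellTiter-Glo gave cytotoxicity, and IC50/CC50 came from 4-parameter logistic fits.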

RSV-A2-GFP virus = experiment: microbe, parasite or virus in culture; assay type: cell-based, Human Respiratory Syncytial Virus
Summary of the method: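 Assay-ready frozen Calu-1 cells at 20,000 cells/mL were infected with recombinant RSV-A2-GFP (MOI 1.2) in DMEM with 2% FBS. Cells were exposed to 10-point 3-fold compound dilutions for 96 h at 37° C. GFP-positive cells were counted by imaging, with same-well CellTiter-Glo for cytotoxicity, and IC50 and CC50 came from 4-parameter logistic fits.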

[1] = VERO cells infected with hMPV-GFP, 48 hrs, GFP-expressing cells counted, read-out: hMPV EC50
[2] = Calu-1 cells infected with RSV-A2-GFP, 96 hrs, GFP-expressing cells counted, read-out: RSV EC50
[3] = read-out: hMPV EC50, VERO cells infected with hMPV-GFP, 48 hrs, GFP-expressing cells counted
[4] = read-out: RSV EC50, Calu-1 cells infected with RSV-A2-GFP, 96 hrs, GFP-expressing cells counted
[5] = human metapneumovirus, Vero, 48 h, read-out: hMPV EC50, VERO cells infected with hMPV-GFP, 48 hrs, GFP-expressing cells counted
[6] = human respiratory syncytial virus, Calu-1, 96 h, read-out: RSV EC50, Calu-1 cells infected with RSV-A2-GFP, 96 hrs, GFP-expressing cells counted

Compound | EC50 (hMPV-GFP virus; [1]) | EC50 (RSV-A2-GFP virus; [2]) | further results
Cc1nc(-c2ncccn2)sc1C(=O)N1C[C@@H]2[C@H](C1)[C@H]2Oc1cc(C(C)(C)N)cc(-c2cc3ccccc3n2C)n1 [Example 44, ((1R,5S,6s)-6-((4-(2-aminopropan-2-yl)-6-(1-methyl-1H-indol-2-yl)pyridin-2-yl)oxy)-3-azabicyclo[3.1.0]hexan-3-yl)(4-methyl-2-(pyrimidin-2-yl)thiazol-5-yl)methanone] | 0.01 to 0.1 µM | < 0.01 µM | 
Cn1nc(-c2ncccn2)cc1C(=O)N1C[C@H]2[C@H](Oc3cc(C(C)(C)N)cc(-c4ccc(F)c(F)c4)n3)[C@@]2(C)C1 (single isomer, unassigned; enantiomer 2) [Example 105B] |  |  | EC50 (hMPV-GFP virus; [3]): 0.01 to 0.1 µM; EC50 (RSV-A2-GFP virus; [4]): < 0.01 µM
CC(C)(N)c1cc(O[C@H]2[C@@H]3CN(C(=O)c4cn(-c5ncccn5)nc4CC(F)F)C[C@@H]32)nc(-c2ccc(F)cc2)c1 [Example 132, ((1R,5S,6s)-6-((4-(2-aminopropan-2-yl)-6-(4-fluorophenyl)pyridin-2-yl)oxy)-3-azabicyclo[3.1.0]hexan-3-yl)(3-(2,2-difluoroethyl)-1-(pyrimidin-2-yl)-1H-pyrazol-4-yl)methanone] |  |  | EC50 (hMPV-GFP virus; [5]): > 0.1 µM; EC50 (RSV-A2-GFP virus; [6]): < 0.01 µM
CCc1nc(-c2ncccn2)sc1C(=O)N1C[C@@H]2[C@H](C1)[C@H]2Oc1cc(C(C)(C)N)cc(-c2ccc(F)cc2)n1 [Example 10, ((1R,5S,6s)-6-((4-(2-aminopropan-2-yl)-6-(4-fluorophenyl)pyridin-2-yl)oxy)-3-azabicyclo[3.1.0]hexan-3-yl)(4-ethyl-2-(pyrimidin-2-yl)thiazol-5-yl)methanone] | 0.01 to 0.1 µM | < 0.01 µM | 
Cc1nc(-c2ncccn2)sc1C(=O)N1C[C@@H]2C(Oc3cc(C(C)(N)CO)cc(-c4ccc(F)cc4)n3)[C@@H]2C1 (single isomer, unassigned; enantiomer 2) [Example 113B] | > 0.1 µM | < 0.01 µM | 
Cn1nc(-c2ncccn2)cc1C(=O)N1C[C@@H]2[C@H](C1)[C@H]2Oc1cc(C(C)(C)N)cc(-c2ccc(F)cc2)n1 [Example 52, ((1R,5S,6s)-6-((4-(2-aminopropan-2-yl)-6-(4-fluorophenyl)pyridin-2-yl)oxy)-3-azabicyclo[3.1.0]hexan-3-yl)(1-methyl-3-(pyrimidin-2-yl)-1H-pyrazol-5-yl)methanone] |  |  | EC50 (hMPV-GFP virus; [5]): > 0.1 µM; EC50 (RSV-A2-GFP virus; [6]): < 0.01 µM
CC(C)(N)c1cc(O[C@H]2[C@@H]3CN(C(=O)c4cn(-c5ncccn5)nc4OC(F)F)C[C@@H]32)nc(-c2ccc(F)cc2)c1 [Example 69, ((1R,5S,6s)-6-((4-(2-aminopropan-2-yl)-6-(4-fluorophenyl)pyridin-2-yl)oxy)-3-azabicyclo[3.1.0]hexan-3-yl)(3-(difluoromethoxy)-1-(pyrimidin-2-yl)-1H-pyrazol-4-yl)methanone] | > 0.1 µM | < 0.01 µM | 
Cc1nc(-c2ncccn2)sc1C(=O)N1C[C@@H]2[C@H](C1)[C@H]2Oc1cc(C(C)(C)N)cc(-c2cccc(F)c2)n1 [Example 16, ((1R,5S,6s)-6-((4-(2-aminopropan-2-yl)-6-(3-fluorophenyl)pyridin-2-yl)oxy)-3-azabicyclo[3.1.0]hexan-3-yl)(4-methyl-2-(pyrimidin-2-yl)thiazol-5-yl)methanone] | 0.01 to 0.1 µM | < 0.01 µM | 
Cc1cccc(-c2cc(C(C)(C)N)cc(O[C@H]3[C@@H]4CN(C(=O)c5sc(-c6ncccn6)nc5C)C[C@@H]43)n2)c1F [Example 40, ((1R,5S,6s)-6-((4-(2-aminopropan-2-yl)-6-(2-fluoro-3-methylphenyl)pyridin-2-yl)oxy)-3-azabicyclo[3.1.0]hexan-3-yl)(4-methyl-2-(pyrimidin-2-yl)thiazol-5-yl)methanone] | > 0.1 µM | < 0.01 µM | 
Cc1nc(-c2ncccn2)sc1C(=O)N1C[C@@H]2[C@H](C1)[C@H]2Oc1cc(C(C)(C)N)cc(-c2ccccc2)n1 [Example 20, ((1R,5S,6s)-6-((4-(2-aminopropan-2-yl)-6-phenylpyridin-2-yl)oxy)-3-azabicyclo[3.1.0]hexan-3-yl)(4-methyl-2-(pyrimidin-2-yl)thiazol-5-yl)methanone] | > 0.1 µM | < 0.01 µM | 
Cc1nc(-c2ncccn2)sc1C(=O)N1C[C@@H]2[C@H](C1)[C@H]2Oc1cc(C(C)(C)N)cc(-c2ccc(C(F)(F)F)c(Cl)c2)n1 [Example 29, ((1R,5S,6s)-6-((4-(2-aminopropan-2-yl)-6-(3-chloro-4-(trifluoromethyl)phenyl)pyridin-2-yl)oxy)-3-azabicyclo[3.1.0]hexan-3-yl)(4-methyl-2-(pyrimidin-2-yl)thiazol-5-yl)methanone] | 0.01 to 0.1 µM | < 0.01 µM | 
Cc1nc(-c2ncccn2)sc1C(=O)N1C[C@@H]2C(Oc3cc(C(C)(C)N)cc(C4=CCC(C(F)(F)F)CC4)n3)[C@@H]2C1 (mixture of isomers) [Example 47, rac-((1R,5S,6s)-6-((4-(2-aminopropan-2-yl)-6-(4-(trifluoromethyl)cyclohex-1-en-1-yl)pyridin-2-yl)oxy)-3-azabicyclo[3.1.0]hexan-3-yl)(4-methyl-2-(pyrimidin-2-yl)thiazol-5-yl)methanone] | > 0.1 µM | < 0.01 µM | 
Cc1nn(-c2ncccn2)cc1C(=O)N1C[C@H]2[C@H](Oc3cc(C(C)(C)N)cc(-c4ccc(F)cc4)n3)[C@@]2(C)C1 (single isomer, unassigned; enantiomer 2) [Example 107B] |  |  | EC50 (hMPV-GFP virus; [3]): > 0.1 µM; EC50 (RSV-A2-GFP virus; [4]): < 0.01 µM
Cc1nc(-c2ncccn2)sc1C(=O)N1C[C@@H]2[C@H](C1)[C@H]2Oc1cc(C(C)(C)N)cc(-c2ccc(C(F)F)cc2)n1 [Example 25, ((1R,5S,6s)-6-((4-(2-aminopropan-2-yl)-6-(4-(difluoromethyl)phenyl)pyridin-2-yl)oxy)-3-azabicyclo[3.1.0]hexan-3-yl)(4-methyl-2-(pyrimidin-2-yl)thiazol-5-yl)methanone] | 0.01 to 0.1 µM | < 0.01 µM | 
CC(C)(N)c1cc(O[C@H]2[C@@H]3CN(C(=O)c4cn(-c5ncccn5)nc4C(F)(F)F)C[C@@H]32)nc(-c2ccc(F)cc2)c1 [Example 67, ((1R,5S,6s)-6-((4-(2-aminopropan-2-yl)-6-(4-fluorophenyl)pyridin-2-yl)oxy)-3-azabicyclo[3.1.0]hexan-3-yl)(1-(pyrimidin-2-yl)-3-(trifluoromethyl)-1H-pyrazol-4-yl)methanone] | > 0.1 µM | < 0.01 µM | 
CC(C)(N)c1cc(O[C@H]2[C@@H]3CN(C(=O)c4sc(-c5ncccn5)nc4C(F)F)C[C@@H]32)nc(-c2ccc(F)cc2)c1 [Example 49, ((1R,5S,6s)-6-((4-(2-aminopropan-2-yl)-6-(4-fluorophenyl)pyridin-2-yl)oxy)-3-azabicyclo[3.1.0]hexan-3-yl)(4-(difluoromethyl)-2-(pyrimidin-2-yl)thiazol-5-yl)methanone] |  |  | EC50 (hMPV-GFP virus; [5]): 0.01 to 0.1 µM; EC50 (RSV-A2-GFP virus; [6]): < 0.01 µM
Cn1nc(-c2ncccn2)cc1C(=O)N1C[C@@H]2[C@H](C1)[C@H]2Oc1cc(C(C)(C)N)cc(-c2ccc3c(c2)CC3(F)F)n1 [Example 98, ((1R,5S,6s)-6-((4-(2-aminopropan-2-yl)-6-(7,7-difluorobicyclo[4.2.0]octa-1(6),2,4-trien-3-yl)pyridin-2-yl)oxy)-3-azabicyclo[3.1.0]hexan-3-yl)(1-methyl-3-(pyrimidin-2-yl)-1H-pyrazol-5-yl)methanone] | > 0.1 µM | < 0.01 µM | 
Cc1nc(-c2ncccn2)sc1C(=O)N1C[C@@H]2[C@H](C1)[C@H]2Oc1cc(C(C)(C)N)cc(-c2ccc(F)c(Cl)c2)n1 [Example 17, ((1R,5S,6s)-6-((4-(2-aminopropan-2-yl)-6-(3-chloro-4-fluorophenyl)pyridin-2-yl)oxy)-3-azabicyclo[3.1.0]hexan-3-yl)(4-methyl-2-(pyrimidin-2-yl)thiazol-5-yl)methanone] | 0.01 to 0.1 µM | < 0.01 µM | 
Cc1nc(-c2ncccn2)sc1C(=O)N1C[C@@H]2[C@H](C1)[C@H]2Oc1cc(C(C)(N)CO)cc(-c2ccc(F)cc2)n1 (single isomer, unassigned; enantiomer 1) [Example 113A] |  |  | EC50 (hMPV-GFP virus; [5]): > 0.1 µM; EC50 (RSV-A2-GFP virus; [6]): < 0.01 µM
Cc1nc(-c2ncccn2)sc1C(=O)N1C[C@@H]2[C@H](C1)[C@H]2Oc1cc(C(C)(C)N)cc(-c2ccc(Cl)c(F)c2)n1 [Example 18, ((1R,5S,6s)-6-((4-(2-aminopropan-2-yl)-6-(4-chloro-3-fluorophenyl)pyridin-2-yl)oxy)-3-azabicyclo[3.1.0]hexan-3-yl)(4-methyl-2-(pyrimidin-2-yl)thiazol-5-yl)methanone] | 0.01 to 0.1 µM | < 0.01 µM | 
COc1cc(F)ccc1-c1cc(C(C)(C)N)cc(O[C@H]2[C@@H]3CN(C(=O)c4sc(-c5ncccn5)nc4C)C[C@@H]32)n1 [Example 41, ((1R,5S,6s)-6-((4-(2-aminopropan-2-yl)-6-(4-fluoro-2-methoxyphenyl)pyridin-2-yl)oxy)-3-azabicyclo[3.1.0]hexan-3-yl)(4-methyl-2-(pyrimidin-2-yl)thiazol-5-yl)methanone] | > 0.1 µM | < 0.01 µM | 
CC1(C)CCN(c2cc(C(C)(C)N)cc(O[C@H]3[C@@H]4CN(C(=O)c5cn(-c6ncccn6)nc5C(F)F)C[C@@H]43)n2)CC1 [Example 101, ((1R,5S,6s)-6-((4-(2-aminopropan-2-yl)-6-(4,4-dimethylpiperidin-1-yl)pyridin-2-yl)oxy)-3-azabicyclo[3.1.0]hexan-3-yl)(3-(difluoromethyl)-1-(pyrimidin-2-yl)-1H-pyrazol-4-yl)methanone] | > 0.1 µM | < 0.01 µM | 

Source: patent US12643882B2, “Inhibitors of human respiratory syncytial virus and metapneumovirus” (priority 2022, dated 2026)
